Reference: the Kinase Knowledgebase extract (Sharma et al. 2016)

Target: PIK3CA (human) (UniProt P42336)
Assay: Inhibition of PIK3CA Kinase Activity

PIK3CA (human), sequence (P42336 whole entry, looked up): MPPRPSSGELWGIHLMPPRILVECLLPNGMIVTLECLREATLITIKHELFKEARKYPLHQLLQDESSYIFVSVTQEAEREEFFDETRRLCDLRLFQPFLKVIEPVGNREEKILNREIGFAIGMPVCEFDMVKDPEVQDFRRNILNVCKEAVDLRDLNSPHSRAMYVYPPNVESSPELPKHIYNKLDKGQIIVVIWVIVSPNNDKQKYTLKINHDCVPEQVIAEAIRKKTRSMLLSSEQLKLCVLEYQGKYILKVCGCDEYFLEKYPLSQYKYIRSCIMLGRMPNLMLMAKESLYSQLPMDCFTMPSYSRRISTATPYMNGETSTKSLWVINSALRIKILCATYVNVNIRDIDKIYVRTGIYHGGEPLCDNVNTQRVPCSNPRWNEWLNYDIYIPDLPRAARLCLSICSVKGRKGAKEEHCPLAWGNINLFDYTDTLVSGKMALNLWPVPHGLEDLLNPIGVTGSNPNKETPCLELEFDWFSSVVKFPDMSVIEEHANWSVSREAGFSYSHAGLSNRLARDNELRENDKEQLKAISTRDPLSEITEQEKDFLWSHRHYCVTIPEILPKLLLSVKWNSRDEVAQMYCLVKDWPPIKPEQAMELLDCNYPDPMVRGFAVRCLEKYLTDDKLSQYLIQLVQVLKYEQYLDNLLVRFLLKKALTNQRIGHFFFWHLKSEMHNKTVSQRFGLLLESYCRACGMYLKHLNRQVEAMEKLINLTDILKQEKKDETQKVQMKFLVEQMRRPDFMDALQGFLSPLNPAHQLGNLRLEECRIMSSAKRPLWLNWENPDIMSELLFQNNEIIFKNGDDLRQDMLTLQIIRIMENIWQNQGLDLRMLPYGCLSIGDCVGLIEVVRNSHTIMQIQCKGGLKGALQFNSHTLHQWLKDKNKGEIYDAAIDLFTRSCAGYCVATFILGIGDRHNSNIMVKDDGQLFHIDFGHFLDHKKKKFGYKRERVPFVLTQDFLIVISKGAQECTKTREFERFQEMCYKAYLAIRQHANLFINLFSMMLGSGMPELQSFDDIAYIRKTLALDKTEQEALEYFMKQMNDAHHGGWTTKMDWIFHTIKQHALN

IC50 [nM]	Compound
50 to 250	Cc1nc2c(c(N3CCOc4ccc(-c5cnc6nc(C7CC7)[nH]c6c5)cc4C3)n1)CC(C)(C)CC2
10 to 50	c1ccc2c(N3CCOc4ccc(-c5ccc6nc(C7CC7)[nH]c6c5)cc4C3)ccnc2c1
10 to 50	Cc1nc2ncc(-c3ccc4c(c3)CN(c3nc(CN(C)C)nc5ccc(F)cc35)CCO4)cc2[nH]1
≤ 10	CC1(C)CCc2ncnc(N3CCOc4ccc(-c5cnc(N)c(S(=O)(=O)N6CC(O)C6)c5)cc4C3)c2C1
250 to 1000	CNCCN(C)c1ncnc(N2CCOc3ccc(-c4cnc5nc(C6CC6)[nH]c5c4)cc3C2)c1C
10 to 50	COC(=O)Nc1nc2ccc(-c3ccc4c(c3)CN(c3ncnc5c3CC(C)(C)CC5)CCO4)cc2[nH]1
≤ 10	Cc1ncnc(N2CCOc3ccc(-c4ccc(-c5ncc[nH]5)cc4)cc3C2)c1Cc1ccc(F)cc1
250 to 1000	Cc1nc2ccc(-c3ccc4c(c3)CN(c3nc(-c5ccccn5)nc5c3CC(C)(C)CC5)CCO4)cc2[nH]1
250 to 1000	COc1c(OCCN(C)C)ccc2c(N3CCOc4ccc(-c5ccc6nc(C)[nH]c6c5)cc4C3)ncnc12
50 to 250	CCNc1nc2ccc(-c3ccc4c(c3)CN(c3nc(C)nc(Nc5ccccc5)c3C)CCO4)cc2[nH]1
50 to 250	Cc1nc2ncc(-c3ccc4c(c3)CN(c3ncnc5c3CC[C@@H](C)C5)CCO4)cc2[nH]1
50 to 250	CNc1ncc(-c2ccc3c(c2)CN(c2ncnc4c2CC(C)(C)CC4)CCO3)cc1NS(C)(=O)=O
250 to 1000	Cc1nc2ccc(-c3ccc4c(c3)CN(c3ncnc5scc(C)c35)CCO4)cc2[nH]1
≤ 10	Cc1nc(N)nc(N2CCOc3ccc(-c4cnc5[nH]cnc5c4)cc3C2)c1Cc1ccc(F)cc1
50 to 250	CN(C)Cc1nc2c(c(N3CCOc4ccc(-c5ccc(N)nc5)cc4C3)n1)CC(C)(C)CC2
250 to 1000	COCCOc1ccc2ncnc(N3CCOc4ccc(-c5ccc6nc(C)[nH]c6c5)cc4C3)c2c1
10 to 50	CC1(C)CCc2ncnc(N3CCOc4ccc(-c5cnc(N)c(S(=O)(=O)NC6CCC6)c5)cc4C3)c2C1
250 to 1000	COc1ccc2c(N3CCOc4ccc(-c5ccc(-c6nc7ccccc7[nH]6)cc5)cc4C3)nc(C)nc2c1
10 to 50	CCc1ncnc(N2CCOc3ccc(-c4ccc5nc(C)[nH]c5c4)cc3C2)c1Cc1ccccc1
10 to 50	CC1(C)CCc2ncnc(N3CCOc4ccc(-c5cnc(N)c(S(=O)(=O)NCC(O)C(F)(F)F)c5)cc4C3)c2C1 (stereo not drawn)
≤ 10	Cc1nc(CN(C)C)nc(N2CCOc3ccc(-c4cnc5sc(N)nc5c4)cc3C2)c1C
50 to 250	CCCc1nc2ccc(-c3ccc4c(c3)CN(c3ccnc5ccccc35)CCO4)cc2[nH]1

IC50 [nM]	Compound
≤ 10	COC(=O)Nc1nc2ccc(-c3ccc4c(c3)CN(c3ncnc(C)c3Cc3ccc(F)cc3)CCO4)cc2[nH]1
≤ 10	CCNc1nc2ncc(-c3ccc4c(c3)CN(c3ncnc5c3CC(C)(C)CC5)CCO4)cc2[nH]1
50 to 250	CC1(C)CCc2ncnc(N3CCOc4ccc(-c5cnc(N)c(S(=O)(=O)NCC6CCCCN6)c5)cc4C3)c2C1 (stereo not drawn)
250 to 1000	Cc1nc2ccc(-c3ccc4c(c3)CN(c3ncnc5c(Cl)cc(Cl)cc35)CCO4)cc2[nH]1
10 to 50	CC1(C)CCc2ncnc(N3CCOc4ccc(-c5cnc(N)c(S(=O)(=O)N[C@H]6CCNC6)c5)cc4C3)c2C1
≤ 10	CN(C)Cc1nc2c(c(N3CCOc4ccc(-c5cnc6sc(N)nc6c5)cc4C3)n1)CC(C)(C)CC2
10 to 50	Cc1nc2ccc(-c3ccc4c(c3)CN(c3ncnc(C)c3Cc3ccc(F)cc3)CCO4)cc2[nH]1
50 to 250	COCCOc1cc(-c2ccc3c(c2)CN(c2nc(CN(C)C)nc4c2CC(C)(C)CC4)CCO3)ccc1OC
10 to 50	Cc1nc(C)c(CC2CC2)c(N2CCOc3ccc(-c4cnc5nc(C6CC6)[nH]c5c4)cc3C2)n1
10 to 50	Cc1nc2ccc(-c3ccc4c(c3)CN(c3ccnc(C)c3Cc3ccccc3)CCO4)cc2[nH]1
250 to 1000	COCc1nc2ccc(-c3ccc4c(c3)CN(c3ccnc5ccccc35)CCO4)cc2[nH]1
10 to 50	CCNc1nc2ccc(-c3ccc4c(c3)CN(c3ccnc5ccc(OC)cc35)CCO4)cc2[nH]1
50 to 250	COc1cc2ncnc(N3CCOc4ccc(-c5ccc6nc(C)[nH]c6c5)cc4C3)c2cc1OC
10 to 50	Cc1nc2cc(-c3ccc4c(c3)CN(c3nc(CN(C)C)nc(C)c3C)CCO4)cnc2[nH]1
50 to 250	Cc1nc2ccc(-c3ccc4c(c3)CN(c3ncnc5ccc(Br)cc35)CCO4)cc2[nH]1
≤ 10	Cc1nc2ncc(-c3ccc4c(c3)CN(c3nc(CN[C@@H](C)C(=O)O)nc5c3CC(C)(C)CC5)CCO4)cc2[nH]1
250 to 1000	CN(c1cc(-c2ccc3c(c2)CN(c2ncnc4c2CC(C)(C)CC4)CCO3)cnc1Cl)S(C)(=O)=O
50 to 250	Cc1nc2ncc(-c3ccc4c(c3)CN(c3ncnc5c3C[C@H](C)[C@@H](C)C5)CCO4)cc2[nH]1
50 to 250	CCc1ncnc(N2CCOc3ccc(-c4ccc5nc(C)[nH]c5c4)cc3C2)c1C
50 to 250	Cc1nc2ccc(-c3ccc4c(c3)CN(c3cc(-c5ccccc5)nc5ccccc35)CCO4)cc2[nH]1
≤ 10	Cc1c(Nc2ccccc2)ncnc1N1CCOc2ccc(-c3cnc4nc(N)[nH]c4c3)cc2C1
10 to 50	COc1c(Br)ccc2c(N3CCOc4ccc(-c5ccc6nc(C)[nH]c6c5)cc4C3)ncnc12

IC50 [nM]	Compound
10 to 50	CC1(C)CCc2ncnc(N3CCOc4ccc(-c5cnc(N)c(S(=O)(=O)NC6CNC6)c5)cc4C3)c2C1
10 to 50	CNc1ncc(-c2ccc3c(c2)CN(c2ncnc4c2CC(C)(C)CC4)CCO3)cc1S(=O)(=O)NCCO
50 to 250	Cc1nc2cc(-c3ccc4c(c3)CN(c3nc(CN(C)C)nc(C)c3-c3ccccc3)CCO4)ccc2[nH]1
≤ 10	Cc1ncnc(N2CCOc3ccc(-c4cnc(N)s4)cc3C2)c1Cc1ccc(F)cc1
250 to 1000	Cc1ncnc(N2CCOc3ccc(-c4ccc(C(=O)NC5CC5)cc4)cc3C2)c1Cc1ccc(F)cc1
50 to 250	CC1(C)CCc2ncnc(N3CCOc4ccc(-c5cnc(N)c(S(=O)(=O)O)c5)cc4C3)c2C1
≤ 10	CCC1CCc2ncnc(N3CCOc4ccc(-c5cnc6nc(N)[nH]c6c5)cc4C3)c2C1 (stereo not drawn)
250 to 1000	CC1(C)CCc2ncnc(N3CCOc4ccc(-c5cnc6nccnc6c5)cc4C3)c2C1
10 to 50	Cc1ncnc(N2CCOc3ccc(-c4ccc5nc(N)[nH]c5n4)cc3C2)c1Cc1ccc(F)cc1
10 to 50	Cc1nc2cc(-c3ccc4c(c3)CN(c3nc(C5CCCN5)nc5c3CC(C)(C)CC5)CCO4)cnc2[nH]1 (stereo not drawn)
≤ 10	Cc1nc2ncc(-c3ccc4c(c3)CN(c3nc(CN5CCCCC5)nc5c3CC(C)(C)CC5)CCO4)cc2[nH]1
10 to 50	COc1ccc(-c2ccc3c(c2)CN(c2nc(CN(C)C)nc(C)c2C(C)C)CCO3)cc1NS(C)(=O)=O
50 to 250	CN(C)S(=O)(=O)c1cncc(-c2ccc3c(c2)CN(c2ncnc4c2CC(C)(C)CC4)CCO3)c1
≤ 10	C=CCc1c(C)nc(CN(C)C)nc1N1CCOc2ccc(-c3ccc4nc(C)[nH]c4c3)cc2C1
10 to 50	CCNc1ncnc(N2CCOc3ccc(-c4cnc5nc(C)[nH]c5c4)cc3C2)c1C
10 to 50	Cc1ncnc(N2CCOc3ccc(-c4ccc5[nH]c(NCCF)nc5c4)cc3C2)c1Cc1ccc(F)cc1
10 to 50	Cc1nc2cc(-c3ccc4c(c3)CN(c3nc(C(C)N(C)C)nc5c3CC(C)(C)CC5)CCO4)cnc2[nH]1 (stereo not drawn)
≤ 10	CCNc1nc2ccc(-c3ccc4c(c3)CN(c3ccnc5cc(F)ccc35)CCO4)cc2[nH]1
≤ 10	CC[C@H]1CCc2c(ncnc2N2CCOc3ccc(-c4cnc5nc(C)[nH]c5c4)cc3C2)C1
≤ 10	Cc1nc2cc(-c3ccc4c(c3)CN(c3nc(N)nc(C)c3Cc3ccc(F)cc3)CCO4)cnc2[nH]1
250 to 1000	Cc1ncnc(N2CCOc3ccc(-c4cncs4)cc3C2)c1Cc1ccc(F)cc1
10 to 50	Cc1nc2ccc(-c3ccc4c(c3)CN(c3ncnc(C)c3Cc3ccccc3)CCO4)cc2[nH]1

IC50 [nM]	Compound
50 to 250	Cc1nc2ccc(-c3ccc4c(c3)CN(c3ncnc5c3CC(C)C5)CCO4)cc2[nH]1 (stereo not drawn)
≤ 10	CCNc1nc2ncc(-c3ccc4c(c3)CN(c3nc(C)nc5c3CC(C)(C)CC5)CCO4)cc2[nH]1
50 to 250	CC1(C)CCc2ncnc(N3CCOc4ccc(-c5cnc(N)c(S(=O)(=O)NC[C@H]6C[C@H]7CNC[C@H]7C6)c5)cc4C3)c2C1
50 to 250	COc1c(OCC(C)C)ccc2c(N3CCOc4ccc(-c5ccc6nc(C)[nH]c6c5)cc4C3)ncnc12
250 to 1000	COc1ccc2c(N3CCOc4ccc(-c5ccc6[nH]c(=O)[nH]c6c5)cc4C3)nc(C)nc2c1
50 to 250	Cc1ncnc(N2CCOc3ccc(-c4cnc5nc(N)cn5c4)cc3C2)c1Cc1ccc(F)cc1
50 to 250	CC1(C)CCc2ncnc(N3CCOc4ccc(-c5cnc6c(c5)S(=O)(=O)NC(=O)N6)cc4C3)c2C1
10 to 50	COC(=O)Nc1nc2ccc(-c3ccc4c(c3)CN(c3ncnc5ccc(OC)cc35)CCO4)cc2[nH]1
10 to 50	Cc1nc2c(F)c(-c3ccc4c(c3)CN(c3nc(CN(C)C)nc5c3CC(C)(C)CC5)CCO4)ccc2[nH]1
50 to 250	Cc1nc2ccc(-c3ccc4c(c3)CN(c3ncnc5ccc(O)cc35)CCO4)cc2[nH]1
50 to 250	Cc1nc2ccc(-c3ccc4c(c3)CN(c3ncnc(C)c3Cc3ccccc3C)CCO4)cc2[nH]1
250 to 1000	Cc1nc2ccc(-c3ccc4c(c3)CN(c3ncnc5c(C(F)(F)F)cccc35)CCO4)cc2[nH]1
10 to 50	CN(C)Cc1nc2c(c(N3CCOc4ccc(-c5ccc6[nH]c(C(F)F)nc6c5)cc4C3)n1)CC(C)(C)CC2
50 to 250	COc1cc2c(N3CCOc4ccc(-c5ccc6nc(C)[nH]c6c5)cc4C3)ncnc2c(OC)c1OC
≤ 10	COc1ccc2c(N3CCOc4ccc(-c5cnc(N)s5)cc4C3)nc(C)nc2c1
250 to 1000	CCCOc1ccc2ncnc(N3CCOc4ccc(-c5ccc6nc(C)[nH]c6c5)cc4C3)c2c1
10 to 50	Cc1ncnc(N2CCOc3ccc(-c4ccn5nc(N)nc5c4)cc3C2)c1Cc1ccc(F)cc1
250 to 1000	Cc1nc2ccc(-c3ccc4c(c3)CN(c3ccnc(Nc5ccccc5)n3)CCO4)cc2[nH]1
250 to 1000	Cc1nc2ccc(-c3ccc4c(c3)CN(c3ccncn3)CCO4)cc2[nH]1
10 to 50	Cc1nc2ccc(-c3ccc4c(c3)CN(c3ccnc5ccccc35)CCO4)cc2[nH]1
250 to 1000	Cc1nc2ccc(-c3ccc4c(c3)CN(c3ccnc(N)n3)CCO4)cc2[nH]1
10 to 50	CC1(C)CCc2ncnc(N3CCOc4ccc(-c5cnc(N)c(S(=O)(=O)NCC6CNC6)c5)cc4C3)c2C1
